# Source: patent publication US20240400972A1, “Antifouling Composition and Process for Production Thereof” (priority 2015, published 2024)
# Key:
# [1] = system: extracellular proteases of PF-11 and NTC secretomes; assay type: biochemical; settings: 10 mM inhibitor, relatively to non-treated control
# Method: Briefly, 12% SDS-polyacrylamide gels (Laemmli 1970) were co-polymerized with 1% casein or gelatin at 4° C. Non reducing loading buffer (62.5 mM Tris, 2% SDS, 10% glycerol, 0.001% bromophenol blue) was added to secretome samples prior to loading. Electrophoresis was performed at 4° C. and 100 V until the bromophenol dye reached the bottom of the gel. After electrophoresis, gels were rinsed two times in 2.5% (v/v) Triton X-100, 30 min each, for SDS removal, followed by three washes, 5 min each, in deionized water. Gels were then incubated in activation buffer (0.1M Tris-HCl, 0.01M CaCl2, pH 8), at 37° C. for enzyme renaturation and subsequent proteolytic activity. The gels were washed three times, 5 min each, in deonized water prior to incubation for 1 h in Coomassie Brilliant Blue R-250. […] Protease activity was visible as clear bands on a blue background. […] Protease inhibition by phenyl methyl sulfonyl fluoride (PMSF) and EDTA was determined as described by Bertolini and Rohovec (Bertolini and Rohovec 1992).
# Further evaluations of the type of proteases present in the extracellular protease producers were performed by selective inhibition of serine proteases by PMSF and of metallo-proteases by EDTA.
# [2] = system: sea lice larvae and copepodids; settings: 70 ppm; cited from earlier work
# [3] = system: sea lice larvae and copepodids; experiment: Sea lice larvae and copepodids viability bioassay; assay type: in vivo, Lepeophtheirus salmonis salmonis; settings: 70 ppm, positive control
# Method: The assay consisted on incubating sea lice (Lepeophtheirus salmonis salmonis) larvae and copepodids with PF-11 secretome in order to evaluate the viability of the larvae and copepodids compared to a blank control. Sodium hypocholorite (NaoCl), known to kill the larvae within 40 min at 70 ppm, was used as a positive control. Larvae were obtained by sedating salmon sea lice with Benzocain, harvesting egg strings with tweezers, and transferring the strings to a water bath placed in an incubator. Inside the incubator, the water was continuously changed throughout the incubation period. When the larvae were developed, they were removed from the incubator and used in the bioassay. Copepodids were developed from egg strings from sea lice as described for larvae. Seawater containing louse larvae and copepodids was placed in a petri dish and PF-11 secretome was added to the final pretended concentration. Larvae and copepodids in seawater with no added compounds were also used for comparison. The positive control was NaOCl at 70 ppm. The larvae and copepodids viability was checked over time. An evaluation of larvae viability was performed and compared to the viability in the blank controls. The viability in the pure seawater control and the medium blank control was monitored and compared and remained the same throughout the experiment.
# Strain PF-11 = assay type: cell-based, Pseudomonas putida; settings: CLSI standards, EUCAST resistance breakpoints
# Method: MICS (Minimum Inhibitory Concentration) was determined by agar dilution and disk diffusion according to CLSI standards (CLSI, M02-A10; CLSI, M100-S21). Briefly, LA plates were prepared supplemented with serial dilutions of the antibiotic to be tested to determine the MIC. The lowest antibiotic concentration preventing growth of the strain is considered the MIC value. The strain Escherichia coli ATCC 25922 was used as control strain, as recommended.
SMILES,susceptibility of strain PF-11 (Strain PF-11),further results
O=C(O)CN(CCN(CC(=O)O)CC(=O)O)CC(=O)O [EDTA],,inhibition of proteolytic activity of PF-11 and NTC secretomes [1]: strongly inhibited
"[Na+].[O-]Cl [NaOCl, Sodium hypocholorite]",,time to kill the larvae [2]: ≤ 40 min; required time to become 100% effective [3]: 20 min
"O=S(=O)(F)Cc1ccccc1 [PMSF, phenyl methyl sulfonyl fluoride]",,inhibition of proteolytic activity of PF-11 and NTC secretomes [1]: significantly lower inhibitory effects
CC1(C)S[C@@H]2[C@H](NC(=O)[C@H](N)c3ccc(O)cc3)C(=O)N2[C@H]1C(=O)O [amoxycillin],resistant,
CC1(C)S[C@@H]2[C@H](NC(=O)[C@H](N)c3ccccc3)C(=O)N2[C@H]1C(=O)O [ampicilin],resistant,
C[C@H]1[C@H](NC(=O)/C(=N\OC(C)(C)C(=O)O)c2csc(N)n2)C(=O)N1S(=O)(=O)O [aztreonam],resistant,
CO/N=C(\C(=O)N[C@@H]1C(=O)N2C(C(=O)O)=C(COC(C)=O)CS[C@H]12)c1csc(N)n1 [cefotaxime],resistant,
CO[C@@]1(NC(=O)Cc2cccs2)C(=O)N2C(C(=O)O)=C(COC(N)=O)CS[C@@H]21 [cefoxitine],resistant,
CC(C)(O/N=C(\C(=O)N[C@@H]1C(=O)N2C(C(=O)[O-])=C(C[n+]3ccccc3)CS[C@H]12)c1csc(N)n1)C(=O)O [ceftazidime],resistant,
